Laboratory results reported in ChEMBL document CHEMBL4837240 (J Med Chem, 2021).
Values belong to the compound of their own block, whether it stands above or below them. The source made the active and inactive calls. The calls are words filed in the database; no cut-off is given here.

Experiments:
[1] = Toxicity in BALB/c mouse xenografted with MDA-MB-231 cells assessed as change in spleen at 300 mg/kg, po by hematoxylin and eosin staining based analysis; assay type: organism-based; conditions: in vivo
[2] = Toxicity in BALB/c mouse xenografted with MDA-MB-231 cells assessed as AST level in blood at 300 mg/kg, po; assay type: organism-based; conditions: in vivo
[3] = test system: HDLEC; test: Inhibition of cell migration in VEGF-C-induced human dermal lymphatic endothelial cells assessed as cell migration at 100 nM incubated for 24 hrs by inverted microscopy based by scratch wound healing assay; assay type: functional, tissue-based
[4] = test system: HDLEC; test: Anti-lymphangiogenic activity against human dermal lymphatic endothelial cells assessed as inhibition of VEGF-C-mediated tube formation at 100 nM incubated for 12 hrs by inverted microscopy; assay type: functional, tissue-based
[5] = Toxicity in BALB/c mouse xenografted with MDA-MB-231 cells assessed as uric acid level in blood at 300 mg/kg, po; assay type: organism-based; conditions: in vivo
[6] = test system: HDLEC; test: Antimigratory activity against VEGF-C-induced human dermal lymphatic endothelial cells assessed as cell migration at 100 nM incubated for 12 hrs by inverted microscopy based by transwell assay; assay type: functional, tissue-based
[7] = Antiproliferative activity against VEGF-C-induced human dermal lymphatic endothelial cells assessed as cell viability incubated for 48 hrs by CCK-8 assay; assay type: functional, tissue-based; conditions: HDLEC
[8] = Toxicity in BALB/c mouse xenografted with MDA-MB-231 cells assessed as effect on body weight at 50 mg/kg, po; assay type: organism-based; conditions: in vivo
[9] = Toxicity in BALB/c mouse xenografted with MDA-MB-231 cells assessed as change in liver at 300 mg/kg, po by hematoxylin and eosin staining based analysis; assay type: organism-based; conditions: in vivo
[10] = Antiproliferative activity against VEGF-D-induced human dermal lymphatic endothelial cells assessed as cell viability incubated for 48 hrs by CCK-8 assay; assay type: functional, tissue-based; conditions: HDLEC
[11] = Toxicity in BALB/c mouse xenografted with MDA-MB-231 cells assessed as change in liver at 25 mg/kg, po by hematoxylin and eosin staining based analysis; assay type: organism-based; conditions: in vivo
[12] = Toxicity in BALB/c mouse xenografted with MDA-MB-231 cells assessed as ALT level in blood at 300 mg/kg, po; assay type: organism-based; conditions: in vivo
[13] = test system: MDA-MB-436; test: Anticancer activity against human MDA-MB-436 cells assessed as cell viability incubated for 48 hrs by MTT assay; conditions: MDA-MB-436, 48 h
[14] = Toxicity in BALB/c mouse xenografted with MDA-MB-231 cells assessed as change in heart at 300 mg/kg, po by hematoxylin and eosin staining based analysis; assay type: organism-based; conditions: in vivo
[15] = Toxicity in BALB/c mouse xenografted with MDA-MB-231 cells assessed as creatinine level in blood at 300 mg/kg, po; assay type: organism-based; conditions: in vivo
[16] = Toxicity in BALB/c mouse xenografted with MDA-MB-231 cells assessed as change in lung at 300 mg/kg, po by hematoxylin and eosin staining based analysis; assay type: organism-based; conditions: in vivo
[17] = Toxicity in BALB/c mouse xenografted with MDA-MB-231 cells assessed as LDH level in blood at 300 mg/kg, po; assay type: organism-based; conditions: in vivo
[18] = test system: MDA-MB-231; test: Anticancer activity against human MDA-MB-231 cells assessed as cell viability incubated for 48 hrs by MTT assay; conditions: MDA-MB-231, 48 h
[19] = Toxicity in BALB/c mouse xenografted with MDA-MB-231 cells assessed as change in kidney at 300 mg/kg, po by hematoxylin and eosin staining based analysis; assay type: organism-based; conditions: in vivo
[20] = test system: MDA-MB-231; test: Antimetastatic activity against human MDA-MB-231 cells injected into vein of BALB/c mouse lung metastatic model assessed as less lung metastatic nodules at 25 mg/kg, po once a day measured on day 21; assay type: functional, organism-based; conditions: time 21.0 day
[21] = target: Platelet-derived growth factor receptor beta (Homo sapiens, UniProt P09619); test: Inhibition of PDGFRbeta (unknown origin)
[22] = target: Platelet-derived growth factor receptor alpha (Homo sapiens, UniProt P16234); test: Inhibition of PDGFRalpha (unknown origin)
[23] = target: Mast/stem cell growth factor receptor Kit (Homo sapiens, UniProt P10721); test: Inhibition of c-Kit (unknown origin)
Sequence of Mast/stem cell growth factor receptor Kit (P10721 whole entry): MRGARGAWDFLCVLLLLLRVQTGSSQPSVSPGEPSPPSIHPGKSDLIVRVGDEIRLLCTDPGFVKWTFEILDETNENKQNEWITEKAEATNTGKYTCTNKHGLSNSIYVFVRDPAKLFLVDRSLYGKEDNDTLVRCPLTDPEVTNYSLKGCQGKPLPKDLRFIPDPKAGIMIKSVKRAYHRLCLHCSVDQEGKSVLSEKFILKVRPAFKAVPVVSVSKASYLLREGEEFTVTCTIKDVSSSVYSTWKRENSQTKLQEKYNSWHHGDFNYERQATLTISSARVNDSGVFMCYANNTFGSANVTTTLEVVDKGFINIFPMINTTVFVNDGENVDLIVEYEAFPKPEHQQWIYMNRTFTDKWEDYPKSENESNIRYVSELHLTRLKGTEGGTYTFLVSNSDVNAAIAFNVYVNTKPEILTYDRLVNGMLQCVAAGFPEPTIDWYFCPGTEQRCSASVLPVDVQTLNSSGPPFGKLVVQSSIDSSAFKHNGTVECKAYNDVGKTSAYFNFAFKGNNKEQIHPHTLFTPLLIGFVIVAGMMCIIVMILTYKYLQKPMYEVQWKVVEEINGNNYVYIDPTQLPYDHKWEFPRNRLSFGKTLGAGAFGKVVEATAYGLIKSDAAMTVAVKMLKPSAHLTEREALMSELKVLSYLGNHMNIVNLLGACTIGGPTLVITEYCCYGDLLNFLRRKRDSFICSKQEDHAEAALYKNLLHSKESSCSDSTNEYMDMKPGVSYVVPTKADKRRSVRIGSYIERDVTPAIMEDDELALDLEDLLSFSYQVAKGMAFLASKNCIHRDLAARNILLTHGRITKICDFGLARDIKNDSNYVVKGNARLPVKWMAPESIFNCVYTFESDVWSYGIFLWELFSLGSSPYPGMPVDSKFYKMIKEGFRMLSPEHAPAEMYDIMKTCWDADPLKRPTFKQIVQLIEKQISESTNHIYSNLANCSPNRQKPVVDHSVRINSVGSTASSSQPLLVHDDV

Sequence of Platelet-derived growth factor receptor beta (P09619 whole entry): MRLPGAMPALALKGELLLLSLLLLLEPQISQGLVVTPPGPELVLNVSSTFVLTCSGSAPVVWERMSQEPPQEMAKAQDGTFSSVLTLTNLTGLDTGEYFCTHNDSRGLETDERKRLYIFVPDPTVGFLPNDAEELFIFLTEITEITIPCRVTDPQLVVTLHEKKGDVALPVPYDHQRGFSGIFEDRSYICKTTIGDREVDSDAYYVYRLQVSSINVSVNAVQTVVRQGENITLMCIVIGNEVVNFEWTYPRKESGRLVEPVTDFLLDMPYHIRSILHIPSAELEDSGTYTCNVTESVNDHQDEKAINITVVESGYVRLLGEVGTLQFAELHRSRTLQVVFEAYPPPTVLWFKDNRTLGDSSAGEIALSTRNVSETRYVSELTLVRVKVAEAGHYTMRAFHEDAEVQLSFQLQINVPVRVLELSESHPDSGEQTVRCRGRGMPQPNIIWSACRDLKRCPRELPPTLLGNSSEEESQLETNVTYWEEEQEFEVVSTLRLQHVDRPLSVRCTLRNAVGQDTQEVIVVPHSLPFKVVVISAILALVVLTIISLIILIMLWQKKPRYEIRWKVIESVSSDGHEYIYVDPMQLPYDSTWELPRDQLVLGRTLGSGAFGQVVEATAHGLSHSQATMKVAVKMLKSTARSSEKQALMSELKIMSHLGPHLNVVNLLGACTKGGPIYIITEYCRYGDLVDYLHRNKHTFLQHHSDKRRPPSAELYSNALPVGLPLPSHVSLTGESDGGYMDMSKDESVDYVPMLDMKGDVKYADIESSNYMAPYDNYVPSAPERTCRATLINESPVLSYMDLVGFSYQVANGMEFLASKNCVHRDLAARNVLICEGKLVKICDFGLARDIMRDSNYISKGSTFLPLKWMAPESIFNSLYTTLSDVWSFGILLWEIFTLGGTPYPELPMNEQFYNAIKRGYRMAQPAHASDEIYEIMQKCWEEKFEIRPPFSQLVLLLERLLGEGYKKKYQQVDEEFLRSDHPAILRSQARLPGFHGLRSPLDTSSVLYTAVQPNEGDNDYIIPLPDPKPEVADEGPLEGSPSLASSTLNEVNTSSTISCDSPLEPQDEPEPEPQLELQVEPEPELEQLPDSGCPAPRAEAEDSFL
Sequence of Platelet-derived growth factor receptor alpha (P16234 whole entry): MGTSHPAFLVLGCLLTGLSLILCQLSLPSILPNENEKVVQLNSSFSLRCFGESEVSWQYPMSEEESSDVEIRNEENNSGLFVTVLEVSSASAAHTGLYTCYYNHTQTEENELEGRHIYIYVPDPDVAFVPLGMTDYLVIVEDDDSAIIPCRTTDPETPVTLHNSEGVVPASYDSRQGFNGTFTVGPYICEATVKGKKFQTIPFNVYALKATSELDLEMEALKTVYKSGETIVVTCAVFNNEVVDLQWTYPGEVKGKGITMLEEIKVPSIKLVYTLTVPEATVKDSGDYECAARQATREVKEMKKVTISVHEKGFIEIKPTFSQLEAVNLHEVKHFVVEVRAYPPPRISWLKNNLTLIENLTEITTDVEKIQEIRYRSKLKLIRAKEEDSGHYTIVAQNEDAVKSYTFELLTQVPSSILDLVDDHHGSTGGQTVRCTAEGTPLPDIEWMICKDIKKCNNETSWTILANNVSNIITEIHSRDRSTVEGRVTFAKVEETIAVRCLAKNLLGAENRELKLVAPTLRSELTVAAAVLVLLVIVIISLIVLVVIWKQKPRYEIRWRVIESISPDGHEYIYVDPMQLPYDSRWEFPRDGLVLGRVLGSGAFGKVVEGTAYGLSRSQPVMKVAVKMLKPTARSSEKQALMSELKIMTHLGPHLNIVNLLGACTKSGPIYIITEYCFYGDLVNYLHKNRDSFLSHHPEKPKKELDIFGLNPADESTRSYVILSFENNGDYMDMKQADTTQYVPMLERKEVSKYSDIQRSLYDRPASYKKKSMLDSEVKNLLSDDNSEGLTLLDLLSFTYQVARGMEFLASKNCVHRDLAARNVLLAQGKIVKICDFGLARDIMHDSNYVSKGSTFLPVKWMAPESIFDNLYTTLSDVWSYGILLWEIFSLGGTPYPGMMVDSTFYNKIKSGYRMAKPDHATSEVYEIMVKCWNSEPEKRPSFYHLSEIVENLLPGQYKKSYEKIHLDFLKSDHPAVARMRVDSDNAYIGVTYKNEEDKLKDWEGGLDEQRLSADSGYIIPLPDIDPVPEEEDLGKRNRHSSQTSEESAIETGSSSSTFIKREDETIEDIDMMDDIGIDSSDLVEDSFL

IC50 [13]: > 50000 nM
IC50 [18]: > 50000 nM
Structure (SMILES): CCn1c(N)c(C(=O)NC)c(=O)c2ccc(C#C[C@@](C)(O)COC)nc21
Activity [1]: Toxic
Activity [2]: Toxic
Activity [3]: Active
Activity [4]: Active
Activity [5]: Toxic
Activity [6]: Active
IC50 [7]: 307 nM
Activity [8]: Toxic
Activity [9]: Toxic
IC50 [10]: 720 nM
Activity [11]: Toxic
Activity [12]: Toxic
Activity [14]: Toxic
Activity [15]: Toxic
Activity [16]: Toxic
Activity [17]: Toxic
Activity [19]: Toxic
Activity [20]: Active

IC50 [21]: 39 nM
IC50 [22]: 51 nM
Structure (SMILES): COc1cc2nccc(Oc3ccc(NC(=O)NC4CC4)c(Cl)c3)c2cc1C(N)=O [LENVATINIB]

Structure (SMILES): CNC(=O)c1cc(COc2nnc(Nc3ccc(Cl)cc3)c3ccoc23)ccn1 [TELATINIB]
IC50 [21]: 15 nM
IC50 [23]: 1 nM
